Tests used:
Format in all cases: cell-based
[1] = molecular target: T1, asc-1 of mouse (co-expressed with 4F2hc of mouse) (Mus musculus, UniProt P63115); assay: Michaelis-Menten kinetic test of substrate incorporation by Xenopus oocytes co-expressing asc-1 and 4F2hc; details: ratio to the Vmax value for alanine (defined as 1.00)
T1 construct: expressed in transfected cells; host or cells: Xenopus oocytes injected with cRNA
T1 sequence (P63115 1-530): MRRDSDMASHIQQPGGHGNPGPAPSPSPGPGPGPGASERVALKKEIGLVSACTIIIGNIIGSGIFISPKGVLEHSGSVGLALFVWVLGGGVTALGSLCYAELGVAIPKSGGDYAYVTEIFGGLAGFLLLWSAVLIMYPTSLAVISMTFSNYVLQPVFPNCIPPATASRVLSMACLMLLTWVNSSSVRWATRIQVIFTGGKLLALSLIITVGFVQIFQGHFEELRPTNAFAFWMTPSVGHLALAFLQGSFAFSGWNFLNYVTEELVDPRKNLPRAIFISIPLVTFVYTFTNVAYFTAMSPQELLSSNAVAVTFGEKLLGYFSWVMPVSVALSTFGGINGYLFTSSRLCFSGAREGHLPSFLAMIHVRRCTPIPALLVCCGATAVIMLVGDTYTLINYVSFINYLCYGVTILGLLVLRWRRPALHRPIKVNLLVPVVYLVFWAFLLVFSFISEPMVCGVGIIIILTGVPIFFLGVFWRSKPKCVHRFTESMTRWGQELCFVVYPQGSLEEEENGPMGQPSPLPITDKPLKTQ
T1 sequence (P10852 1-526 partner): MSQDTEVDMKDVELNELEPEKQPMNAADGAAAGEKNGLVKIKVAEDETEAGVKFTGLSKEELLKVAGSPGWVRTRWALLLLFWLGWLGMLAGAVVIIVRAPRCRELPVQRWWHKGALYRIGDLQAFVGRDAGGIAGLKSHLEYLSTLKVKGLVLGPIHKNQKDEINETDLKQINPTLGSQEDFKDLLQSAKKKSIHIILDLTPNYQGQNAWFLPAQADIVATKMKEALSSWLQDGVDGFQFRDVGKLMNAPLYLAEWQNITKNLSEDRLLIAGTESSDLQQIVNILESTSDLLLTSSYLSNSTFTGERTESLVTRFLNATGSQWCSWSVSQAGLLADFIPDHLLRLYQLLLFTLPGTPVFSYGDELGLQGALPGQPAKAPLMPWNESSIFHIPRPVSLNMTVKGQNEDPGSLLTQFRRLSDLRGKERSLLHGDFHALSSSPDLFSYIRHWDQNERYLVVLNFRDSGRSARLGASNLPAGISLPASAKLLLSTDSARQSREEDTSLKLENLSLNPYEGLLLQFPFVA
Description: (§1) Into oocytes were injected 12 ng of asc-1 gene cRNA of mouse, 13 ng of 4F2hc gene cRNA of mouse or 12 ng asc-1 gene cRNA of mouse/13 ng of 4F2hc gene cRNA of mouse to express followed by incubating for 3 days. […] Thus, the oocytes were allowed to stand for 30 minutes in a Na^+-free uptake solution [100 mM choline chloride, 2 mM potassium chloride, 1.8 mM calcium chloride, 1 mM magnesium chloride, 5 mM HEPES; pH 7.4] containing ^14C-alanine (100 μM) as a substrate and the rate of the substrate incorporated into the cells was measured by way of counting the radioactivity incorporated thereinto.
A Michaelis-Menten kinetic test was carried out for a sodium-independent small neutral amino acid transporter asc-1 which transports L- and D-amino acids. By checking the changes in the rate of incorporation of alanine due to the difference in concentration of the alanine substrate, the Michaelis-Menten kinetic test of asc-1 was carried out.
An experiment for the incorporation of alanine was carried out according to the method mentioned in the above Example 2(1) using the oocytes into which both asc-1 gene cRNA of mouse and 4F2hc gene cRNA of mouse were injected.
With regard to amino acids other than alanine which were used as substrates, a Michaelis-Menten kinetic was carried out as well in the same manner whereupon Km values and Vmax values were calculated. Each Vmax value in Table 1 was shown in terms of the ratio when the Vmax value of alanine was defined as 1.00.

[2] = molecular target: T1, asc-1 of mouse (co-expressed with 4F2hc of mouse); assay: Inhibition of 14C-alanine incorporation by added amino acids and analogs in oocytes co-expressing asc-1 and 4F2hc; details: 14C-alanine 50 μM; 5 mM non-labeled compound; Na+-free uptake solution
Description: as §1
In an experiment of incorporation of alanine by oocytes into which both asc-1 gene cRNA of mouse and 4F2hc gene cRNA of mouse were injected, influence of addition of various amino acid and analogs thereof was investigated.
In an experiment of incorporation of alanine, a method according to that mentioned in the above Example 2(1) was carried out using oocytes into which both asc-1 gene cRNA of mouse and 4F2hc gene cRNA of mouse were injected. Here, a Na^+-free uptake solution was used and incorporation of ^14C-alanine (50 μM) was measured in the presence and absence of 5 mM of various compounds (non-labeled).

[3] = molecular target: T2, intracellular substrate-binding site of asc-1 of mouse (Mus musculus, UniProt P63115); assay: Release of injected 14C-amino acid from oocytes co-expressing asc-1 and 4F2hc on extracellular alanine; details: alanine 100 μM added to Na+-free uptake solution
T2 construct: expressed in transfected cells; host or cells: Xenopus oocytes injected with cRNA
T2 sequence (P63115 1-530): T1 sequence (P63115 1-530)
T2 sequence (P10852 1-526 partner): T1 sequence (P10852 1-526 partner)
Description: In oocytes into which cRNA of asc-1 gene and cRNA of 4F2hc gene of mouse were injected together, release of preloaded ^14C-amino acid mediated by asc-1 was checked whereby the substrate selectivity of intracellular substrate-binding site of asc-1 was checked.
^14C-Amino acid (˜3nCi) of 100 μM in an amount of 100 nl was injected into the oocytes into which both asc-1 gene cRNA and 4F2hc gene cRNA of mouse were injected together, washed with an ice-cooled Na^+-free uptake solution containing no alanine and transferred to a Na^+-free uptake solution to which alanine (100 μM) was added or not added at room temperature (18° C.-22° C.) and the amount of ^14C-amino acid released outside the cells was measured.
Black bars in FIG. 21 show the case where alanine was added to a Na^+-free uptake solution while bars with oblique lines show the case where alanine was not added to a Na^+-free uptake solution.

[4] = molecular target: T3, human asc-1 (co-expressed with human 4F2hc) (Homo sapiens, UniProt Q9NS82); assay: Incorporation of 14C-alanine by oocytes co-expressing human asc-1 and human 4F2hc; details: oocytes where both human asc-1 and 4F2hc were expressed together
T3 construct: expressed in transfected cells
T3 sequence (Q9NS82 1-523): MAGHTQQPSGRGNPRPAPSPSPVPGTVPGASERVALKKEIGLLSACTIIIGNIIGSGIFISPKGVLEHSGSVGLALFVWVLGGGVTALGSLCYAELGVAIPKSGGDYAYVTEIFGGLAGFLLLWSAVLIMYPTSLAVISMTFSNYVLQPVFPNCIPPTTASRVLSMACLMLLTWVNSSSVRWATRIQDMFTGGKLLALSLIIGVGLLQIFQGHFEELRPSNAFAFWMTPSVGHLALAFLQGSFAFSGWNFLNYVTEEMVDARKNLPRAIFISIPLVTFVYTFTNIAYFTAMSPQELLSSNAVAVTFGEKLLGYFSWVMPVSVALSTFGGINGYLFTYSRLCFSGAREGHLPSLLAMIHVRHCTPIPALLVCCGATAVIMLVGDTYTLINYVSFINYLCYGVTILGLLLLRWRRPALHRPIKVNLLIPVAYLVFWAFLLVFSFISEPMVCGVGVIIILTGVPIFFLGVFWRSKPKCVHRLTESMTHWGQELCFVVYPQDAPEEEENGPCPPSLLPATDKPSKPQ
Description: Comparison was made between incorporation of ^14C-alanine in the case where human asc-1 gene cRNA was solely expressed in oocytes with that in the case where both human asc-1 gene cRNA and human 4F2hc gene cRNA were expressed in oocytes. Expression was carried out by injection of 12.5 ng of human asc-1 gene cRNA, 12.5 ng of human 4F2hc gene cRNA or 12.5 ng of human asc-1 gene cRNA/12.5 ng of human 4F2hc gene cRNA into oocytes and incubation was conducted for three days. With regard to the oocytes into which human asc-1 gene cRNA, 4F2hc gene cRNA or human asc-1 gene cRNA/4F2hc gene cRNA was injected, an experiment for incorporation of substrate was carried out according to Example 2(1) using alanine as a substrate.

Row | SMILES | Vmax [1] | inhibition of incorporation of 14C-alanine mediated by asc-1 [2] | release of injected 14C-labeled amino acid by extracellular alanine [3] | incorporation of alanine [4]
1 | N[C@@H](CO)C(=O)O [L-Serine] | 1.02 | particularly strongly inhibited | increase in release | –
2 | C[C@H](N)C(=O)O [L-Alanine] | (1.00) | particularly strongly inhibited | increase in release | big incorporation

From patent US20070122422A1, “Sodium-independent small neutral amino acid transporter transporting L- and D- amino acids” (Japan Science and Technology Corporation, priority 2000, published 2007)
